Measurements taken from article PMC6491784, “Para-Halogenation Affects Monoamine Transporter Inhibition Properties and Hepatocellular Toxicity of Amphetamines and Methcathinones” (Frontiers in Pharmacology, 2019).

What was measured:
[1] = system: HepG2 cells; assay: ATP content (CellTiter-Glo); type: cell-based, human; details: HepG2, 24 h exposure
Procedure: The ATP content was assessed with the CellTiter-Glo Luminescent Cell Viability Assay (Promega, Dübendorf, Switzerland). Briefly, HepG2 cells were seeded in a 96-well plate at a density of 25,000 cells per well. The following day, the cells were treated with 100 μl of the test substances dissolved in medium (0.25, 0.5, 1.0, and 2.0 mM of each drug, and additionally, 0.1 mM of 4-fluoroamphetamine and 4-chloroamphetamine). Triton X-100 (0.5%) was chosen as positive control to induce cell lysis. After 24 h incubation, 50 μl of the supernatant was discarded, and 50 μl of CellTiter-Glo reagent was added to each well. The plate was then shaken for 15 min at room temperature to induce cell lysis. Thereafter, luminescence was measured with a M200 Pro Infinity plate reader (Tecan, Männedorf, Switzerland) and compared to medium control.
(§1) All statistical analyses were performed using GraphPad Prism 7.0c (GraphPad Software, La Jolla, CA, USA). For toxicology assays, differences between control and test drugs were calculated with ANOVA followed by Dunett’s test. p below 0.05 was considered statistically significant. Monoamine uptake data were fit by nonlinear regression to variable slope sigmoidal dose-response curves to assess IC50 values.

[2] = system: HepG2 cells; assay: Mitochondrial superoxide production (MitoSOX); type: cell-based, human; details: HepG2, 24 h exposure
Procedure: Briefly, HepG2 cells were seeded in a 96-well plate at a density of 25,000 cells per well. The following day, the cells were treated with 100 μl of the test substances dissolved in medium (0.25, 0.5, 1.0, and 2.0 mM of each drug, and additionally, 0.1 mM of 4-fluoroamphetamine and 4-chloroamphetamine). Amiodarone (50 μM) was included as positive control. After 24 h incubation, 100 μl of MitoSOX reagent (2.5 μM) was added to each well for 10 min at 37°C protected from light. After that, fluorescence was measured at 510/580 nm with a M200 Pro Infinity plate reader (Tecan, Männedorf, Switzerland). The protein content was assessed with the Pierce BCA Protein Assay Kit (Thermo Fisher Scientific, Basel, Switzerland).
as §1

[3] = system: HepG2 cells; assay: Cell membrane integrity (ToxiLight BioAssay); type: cell-based, human; details: HepG2, 24 h exposure; tested up to 2 mM
Procedure: Cell membrane integrity loss was assessed with the ToxiLight BioAssay Kit (Lonza, Basel, Switzerland) as a marker of cytotoxicity. Briefly, HepG2 cells were seeded in a 96-well plate at a density of 25,000 cells per well. The following day, the cells were treated with 100 μl of the compounds of interest dissolved in medium (0.25, 0.5, 1.0, and 2.0 mM of each drug, and additionally, 0.1 mM of 4-fluoroamphetamine and 4-chloroamphetamine). Triton X-100 (0.5%) was chosen as positive control to induce cell lysis. After 24 h, 50 μl of the ToxiLight assay buffer was added to 20 μl of the supernatant of the drug treatments. After 5 min incubation under shaking, luminescence was measured with a M200 Pro Infinity plate reader (Tecan, Männedorf, Switzerland) and compared to medium control. The amount of viable cells (no cell membrane integrity loss) was calculated in relation to untreated cells and cells lysed with Triton X-100, which were determined to represent 100% and 0% viable cells, respectively.
as §1

[4] = system: HepG2 cells; assay: Mechanisms of cell death (annexin V / propidium iodide flow cytometry); type: cell-based, human; details: HepG2, 24 h exposure; for Main mechanism of cell death: 4-chloroamphetamine at 0.5 mM; for Concentration causing significant reduction in cell viability (annexin V staining): highest concentration 2 mM
From the text: Annexin V, a Ca^2+-dependent phospholipid-binding protein that has a high affinity for phosphatidylserine, was used to determine the percentage of apoptotic cells. Phosphatidylserine is located in the inner cytoplasmic surface of intact cell membranes; in apoptotic cells, phosphatidylserine is translocated to the outer leaflet of the plasma membrane where annexin V binds to it. To assess the percentage of dead cells composed of necrotic and late apoptotic cells, propidium iodide, a red fluorescent dye not permeable to live and apoptotic cells but able to stain permeable necrotic cells by binding to the nucleic acid in the cell, was used. Briefly, 100,000 HepG2 cells per well were seeded in a 48-well plate and cultured overnight. The following day, the cells were treated with 250 μl of the compounds of interest dissolved in medium at concentrations selected based on ATP depletion and cell membrane disruption. Doxorubicin (0.5 μM) was included as positive control. After incubation for 24 h, the cells were harvested with 0.05% trypsin and washed with phosphate buffered saline (pH = 7.4). […] After 15 min incubation in the dark, the cells were analyzed with a CytoFLEX flow cytometer (Beckman Coulter, IN, USA) gating for 10,000 cells.
as §1

[5] = biological target: T1, human DAT (Homo sapiens, UniProt Q01959); assay: Dopamine uptake inhibition in hDAT-transfected HEK 293 cells; type: cell-based
T1 construct: expressed in transfected cells; host or cells: HEK 293 (stably transfected)
T1 sequence (Q01959 whole entry): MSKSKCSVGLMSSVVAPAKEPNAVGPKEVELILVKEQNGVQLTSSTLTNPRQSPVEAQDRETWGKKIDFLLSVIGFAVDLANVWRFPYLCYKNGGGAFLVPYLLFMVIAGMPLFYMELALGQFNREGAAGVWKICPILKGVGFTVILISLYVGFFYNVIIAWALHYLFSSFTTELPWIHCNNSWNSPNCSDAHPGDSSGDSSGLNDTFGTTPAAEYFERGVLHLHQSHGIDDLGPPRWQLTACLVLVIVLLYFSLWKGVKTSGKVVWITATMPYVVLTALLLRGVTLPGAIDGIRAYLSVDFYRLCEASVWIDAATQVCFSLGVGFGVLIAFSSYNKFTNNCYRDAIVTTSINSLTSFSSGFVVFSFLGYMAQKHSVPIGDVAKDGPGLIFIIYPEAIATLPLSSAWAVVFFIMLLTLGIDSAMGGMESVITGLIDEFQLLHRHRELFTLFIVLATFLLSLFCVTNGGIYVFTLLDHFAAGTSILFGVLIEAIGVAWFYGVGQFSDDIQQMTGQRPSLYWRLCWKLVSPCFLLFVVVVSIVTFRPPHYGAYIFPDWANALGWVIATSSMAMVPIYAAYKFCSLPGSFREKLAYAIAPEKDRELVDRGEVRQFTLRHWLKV

[6] = system: HepG2 cells; assay: Cellular oxygen consumption rate (Seahorse XF24); type: cell-based, human; details: HepG2, 24 h exposure; for Concentration decreasing maximal respiratory capacity: OCR after FCCP; for Concentration disrupting cellular respiration: investigated range ≤2 mM
Procedure: The cellular oxygen consumption rate (OCR) was measured with a Seahorse XF24 Analyzer (Seahorse Biosciences, North Billerica, MA, USA). Briefly, HepG2 cells were seeded in a poly-D-lysine coated Seahorse XF24 cell culture microplate at a density of 100,000 cells per well. The following day, the cells were treated with the compounds of interest dissolved in 100 μl culture medium. After 24 h incubation, the medium was removed, and the cells were washed twice with pre-warmed and unbuffered DMEM (4 mM L-glutamate, 1 mM pyruvate, 1 g/L glucose, 63.3 mM sodium chloride, pH 7.4). Thereafter, 750 μl of unbuffered DMEM was added to each well, and the plate was incubated in a CO2 free incubator for 40 min at 37°C. The ports of the XF24 assay cartridge were then loaded with oligomycin, trifluoromethoxy carbonylcyanide phenylhydrazone (FCCP), or rotenone at a final assay concentration of 1 μM, and the cartridge was loaded into the Seahorse XF24 Analyzer. First, oligomycin was injected to inhibit mitochondrial phosphorylation, allowing a quantification of proton leak. Second, oxidative phosphorylation was uncoupled from ATP synthesis by FCCP to determine the maximal respiratory capacity of the cells. Third, rotenone was injected to inhibit complex I of the electron transport chain in order to assess for extramitochondrial respiration, which was then subtracted from basal, leak, and maximal respiration. The protein content was determined using sulforhodamine B staining. The cells were fixed with 100 μl trichloroacetic acid (50% [w/v]), added to each well of the assay plate. After 1 h at 4°C, the cells were washed with deionized water and stained with sulforhodamine B (0.4% [w/v], in 1% [v/v] acetic acid). After 20 min, the cells were rapidly washed with 1% (v/v) acetic acid, and the incorporated dye was solubilized with 100 μl of 10 mM TRIS base. The absorbance was then measured at 490 nm.
as §1

[7] = biological target: T2, human NET (Homo sapiens, UniProt P23975); assay: Norepinephrine uptake inhibition in hNET-transfected HEK 293 cells; type: cell-based
T2 construct: expressed in transfected cells; host or cells: HEK 293 (stably transfected)
T2 sequence (P23975 whole entry): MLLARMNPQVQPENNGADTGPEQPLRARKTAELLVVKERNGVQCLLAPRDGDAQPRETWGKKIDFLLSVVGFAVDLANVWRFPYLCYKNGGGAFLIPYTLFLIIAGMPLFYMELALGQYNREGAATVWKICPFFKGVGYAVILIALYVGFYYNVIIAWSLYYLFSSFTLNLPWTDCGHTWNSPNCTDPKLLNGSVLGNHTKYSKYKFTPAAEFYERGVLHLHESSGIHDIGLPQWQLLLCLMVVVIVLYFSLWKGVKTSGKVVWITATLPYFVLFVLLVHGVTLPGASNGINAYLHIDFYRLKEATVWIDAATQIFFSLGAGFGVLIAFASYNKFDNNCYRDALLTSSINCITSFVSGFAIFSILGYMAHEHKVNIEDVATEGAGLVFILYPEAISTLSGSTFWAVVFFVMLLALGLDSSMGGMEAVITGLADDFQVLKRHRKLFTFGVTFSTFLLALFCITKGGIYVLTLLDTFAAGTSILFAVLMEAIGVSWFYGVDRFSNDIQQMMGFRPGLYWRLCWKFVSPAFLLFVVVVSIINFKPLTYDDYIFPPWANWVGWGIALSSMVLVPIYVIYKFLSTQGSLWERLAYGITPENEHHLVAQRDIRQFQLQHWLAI

[8] = biological target: T3, human SERT (Homo sapiens, UniProt P31645); assay: Serotonin uptake inhibition in hSERT-transfected HEK 293 cells; type: cell-based
T3 construct: expressed in transfected cells; host or cells: HEK 293 (stably transfected)
T3 sequence (P31645 whole entry): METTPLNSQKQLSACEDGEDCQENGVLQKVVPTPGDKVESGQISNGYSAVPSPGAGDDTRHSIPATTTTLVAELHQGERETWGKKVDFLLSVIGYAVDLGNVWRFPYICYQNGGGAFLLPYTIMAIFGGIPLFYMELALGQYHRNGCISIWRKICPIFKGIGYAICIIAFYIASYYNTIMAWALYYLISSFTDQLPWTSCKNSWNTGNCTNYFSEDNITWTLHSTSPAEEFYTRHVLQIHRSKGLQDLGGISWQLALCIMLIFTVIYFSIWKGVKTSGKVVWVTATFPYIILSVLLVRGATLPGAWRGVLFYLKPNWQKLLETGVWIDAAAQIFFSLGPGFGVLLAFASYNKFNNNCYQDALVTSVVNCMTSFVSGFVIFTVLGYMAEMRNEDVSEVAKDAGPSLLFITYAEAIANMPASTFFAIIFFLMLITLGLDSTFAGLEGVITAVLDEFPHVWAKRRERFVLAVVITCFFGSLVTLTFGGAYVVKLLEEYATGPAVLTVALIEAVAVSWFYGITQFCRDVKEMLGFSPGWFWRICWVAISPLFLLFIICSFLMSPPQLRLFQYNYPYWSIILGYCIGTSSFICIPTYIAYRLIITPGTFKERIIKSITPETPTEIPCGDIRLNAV

SMILES	Concentration at which significant depletion of ATP was observed [1] [µM]	Concentration at which significant increase in mitochondrial superoxide was observed [2] [µM]	Concentration causing significant cell membrane integrity loss [3] [µM]	Amount of necrotic and apoptotic cells versus control at 2 mM [4]	DAT/SERT ratio [5]	IC50 [5] [µM]	Concentration decreasing maximal respiratory capacity [6] [µM]	ATP content at 0.5 mM ([1]; 0.5 mM)	IC50 [7] [µM]	IC50 [8] [µM]	Main mechanism of cell death [4]	Concentration causing significant reduction in cell viability (annexin V staining) [4] [µM]	Concentration showing signs of uncoupling of cellular respiration from ATP synthesis ([6]; OCR) [µM]	Concentration disrupting cellular respiration [6] [µM]
CC(N)Cc1ccccc1 (centres unmarked) [Amphetamine]	1000	2000	2000	did not significantly differ from control incubations	–	–	–	–	–	–	–	–	–	–
CC(N)Cc1ccc(Cl)cc1 (centres unmarked) [4-Chloroamphetamine]	100	500	500	–	0.14 (0.07–0.25)	3.6	100	almost complete ATP depletion	0.32	0.49	necrosis	500	–	–
CNC(C)C(=O)c1ccc(Cl)cc1 (centres unmarked) [4-Chloromethcathinone, 4-chloromethcathinone]	1000	1000	2000	–	0.45 (0.25–0.83)	5.1	1000	–	0.43	2.3	Apoptosis	1000	1000	–
CC(N)Cc1ccc(F)cc1 (centres unmarked) [4-Fluoroamphetamine, 4-fluoroamphetamine]	500	1000	2000	–	3.6 (1.9–6.5)	3.9	1000	–	0.15	14	Apoptosis	1000	–	–
CNC(C)C(=O)c1ccccc1 (centres unmarked) [Methcathinone, methcathinone]	2000	2000	> 2000	did not significantly differ from control incubations	34 (20–57)	1.6	–	–	0.12	54	–	> 2000	–	> 2000
CNC(C)C(=O)c1ccc(F)cc1 (centres unmarked) [4-Fluoromethcathinone, 4-fluoromethcathinone]	1000	2000	> 2000	did not significantly differ from control incubations	5.6 (3.3–9.4)	6.6	–	–	0.35	37	–	> 2000	–	> 2000
